Source: article PMC11243327, “Design, Synthesis, Antitumor, and Antiplasmodial Evaluation of New 7-Chloroquinoline–Benzimidazole Hybrids” (Molecules, 2024)

Tests used:
[1] = tested on: CaCo-2 (human colorectal adenocarcinoma); test: Antiproliferative MTT assay, CaCo-2; assay type: cell-based; conditions: Homo sapiens, Caco-2, 72 h, mean ± SD of three experiments
Protocol: (§1) The effect of the new synthesized compounds was tested on five human tumor cell lines, HeLa (human cervical adenocarcinoma; from ATCC), CaCo-2 (human colorectal adenocarcinoma), HL-60 (acute promyelocytic leukemia), HuT78 (T-cell lymphoma), and THP-1 (acute monocytic leukemia), as well as one non-tumor cell line, MRC-5 (human fetal lung fibroblasts). The MRC-5 cells were used between 24 and 26 passages. The cells were cultured in two different types of media: DMEM (Gibco Thermo Fisher Scinetific Inc., Runcorn, UK) and RPMI 1640 (Gibco, Thermo Fisher Scinetific Inc., UK). Both media were supplemented with 2 mM glutamine, fetal bovine serum (10%; heat inactivated), and antibiotics (100 U penicillin and 0.1 mg streptomycin). RPMI 1640 was additionally supplemented with 10 mM HEPES and 1 mM sodium pyruvate. Cells growing in a monolayer were cultured in DMEM, while cells growing in suspension were cultured in RPMI 1640. Cells were grown in humidified atmosphere under the conditions of 37 °C/5% CO2 gas in a CO2 incubator (IGO 150 CELLlife^TM, JOUAN, Thermo Fisher Scientific, Waltham, MA, USA).
(§2) Growth-inhibitory activity was assessed using a slightly modified procedure based on the National Cancer Institute’s protocol. Briefly, cells were seeded in 96-well microtiter plates and incubated for 24 h. They were then treated with 10^−7 to 10^−4 M concentrations of the tested compounds for an additional 72 h. After the treatment period, the effects of the tested compounds on the growth rate of the cells were examined using the MTT assay. Absorbance was measured at 595 nm using a microplate reader. The IC50 value, which represents a 50% inhibition of cell growth, and QC calculation were performed using the GraphPadPrism software (La Jolla, USA), v. 5.03. and Excel software, Office 365. The selectivity index was calculated according to the following formula: SI=IC50 value of normal cell line/IC50 value of cancer cell line
(§3) The effect of each concentration was analyzed by plotting the logarithm of the concentration of the evaluated compound against the corresponding percentage inhibition value using least squares.

[2] = tested on: P. falciparum Dd2 (multiresistant), erythrocytic stage; test: Antiplasmodial HRP2 assay, PfDd2; assay type: cell-based, Plasmodium falciparum; conditions: Plasmodium falciparum, DD2, 72 h; chloroquine-resistant strain, three days incubation, HRP2-ELISA, mean ± SD, n ≥ 2; read-out: IC50 PfDd2
Protocol: (§4) Method used to evaluate the antiplasmodial activity of quinoline–benzimidazole hybrids against two P. falciparum strains, chloroquine-sensitive (Pf3D7) and chloroquine-resistant (PfDd2), was previously described. […] Chloroquine was used as a positive control.
(§5) In brief, 96-well plates were pre-coated with the tested compounds at 1:3 dilution before ring-stage parasites were added to the complete culture medium at a hematocrit of 1.5% and a parasitemia of 0.05%. […] All compounds were analyzed in duplicate in at least two independent experiments. The IC50 was determined by nonlinear regression analysis of the logarithmic concentration-response curves using the drc package v3.0-1 of R v4.1.0 [56].

[3] = tested on: HeLa (human cervical adenocarcinoma); test: Antiproliferative MTT assay, HeLa; assay type: cell-based; conditions: Homo sapiens, HeLa, 72 h, mean ± SD of three experiments
Protocol: as §1, §2, §3

[4] = tested on: THP-1 (acute monocytic leukemia); test: Antiproliferative MTT assay, THP-1; assay type: cell-based, human; conditions: Homo sapiens, THP-1, 72 h, mean ± SD of three experiments
Protocol: as §1, §2, §3

[5] = tested on: MRC-5 (human fetal lung fibroblasts); test: Antiproliferative MTT assay, MRC-5; assay type: cell-based; conditions: Homo sapiens, MRC5, non-tumor cell line, 72 h, mean ± SD of three experiments
Protocol: as §1, §2, §3

[6] = tested on: HL-60 (acute promyelocytic leukemia); test: Antiproliferative MTT assay, HL-60; assay type: cell-based, human; conditions: Homo sapiens, HL-60, 72 h, mean ± SD of three experiments
Protocol: as §1, §2, §3

HuT78 (T-cell lymphoma) = test: Antiproliferative MTT assay, Hut78; assay type: cell-based, human; conditions: Homo sapiens, HuT78, 72 h, mean ± SD of three experiments
Protocol: as §1, §2, §3

[7] = tested on: P. falciparum 3D7 (CQ-susceptible), erythrocytic stage; test: Antiplasmodial HRP2 assay, Pf3D7; assay type: cell-based, Plasmodium falciparum; conditions: Plasmodium falciparum, 3D7, 72 h; chloroquine-sensitive strain, three days incubation, HRP2-ELISA, mean ± SD, n ≥ 2; read-out: IC50 Pf3D7
Protocol: as §4, §5

Row | SMILES | melting point | IC50 [1] | IC50 [2] | IC50 [3] | IC50 [4] | IC50 [5] | IC50 [6] | IC50 (HuT78 (T-cell lymphoma)) | IC50 [7]
1 | COc1cc(-c2nc3ccc(Cl)cc3[nH]2)ccc1OCCNc1ccnc2cc(Cl)ccc12 [Compound 12b, 7-chloro-N-{[4-(5(6)-chloro-benzo[d]imidazole-2-yl)-2-methoxyphenoxy]ethyl}quinolin-4-amine] | 222 °C | 4.7 ± 4 µM | 0.0215 ± 0.0025 µM | 5.6 ± 1.3 µM | 6.1 ± 6.9 µM | 3 ± 1.6 µM | 3.3 ± 1.1 µM | 3.7 ± 5.2 µM | 0.0111 ± 0.0003 µM
2 | COc1cc(-c2nc3ccccc3[nH]2)ccc1OCCNc1ccnc2cc(Cl)ccc12 [Compound 12a, N-{[4-(1H-benzo[d]imidazole-2-yl)-2-methoxyphenoxy]ethyl}-7-chloroquinolin-4-amine] | 210 to 212 °C | 2 ± 0.3 µM | 0.0912 ± 0.0095 µM | 2.2 ± 0.1 µM | 3 ± 0.6 µM | 3.8 ± 0.4 µM | 2 ± 0.3 µM | 4.2 ± 2.1 µM | 0.0145 ± 0.004 µM
3 | COc1ccc2nc(-c3ccc(OCCNc4ccnc5cc(Cl)ccc45)c(Br)c3)[nH]c2c1 [Compound 11c, N-{[2-bromo-4-(5(6)-methoxy-1H-benzo[d]imidazole-2-yl)phenoxy]ethyl}-7-chloroquinolin-4-amine] | 208 to 210 °C | 1.5 ± 0.3 µM | 0.028 ± 0.0006 µM | 2.5 ± 0.4 µM | 3.5 ± 7.3 µM | 5.3 ± 2.4 µM | 2.2 ± 0.4 µM | 3 ± 1.1 µM | 0.0197 ± 0.0042 µM
4 | Clc1ccc2c(NCCOc3ccc(-c4nc5ccccc5[nH]4)cc3)ccnc2c1 [Compound 10a] | 171 to 173 °C | 6.1 ± 4.9 µM | 0.0033 ± 0.0001 µM | 3.4 ± 0.5 µM | 2.4 ± 0.2 µM | 3.1 ± 0.3 µM | 1.3 ± 0.9 µM | 2.8 ± 0.5 µM | 0.0027 ± 0.0002 µM
5 | COc1ccc2nc(-c3ccc(OCCNc4ccnc5cc(Cl)ccc45)c(OC)c3)[nH]c2c1 [Compound 12c, 7-chloro-N-{[4-(5(6)-methoxy-benzo[d]imidazole-2-yl)-2-methoxyphenoxy]ethyl}quinolin-4-amine] | 218 to 219 °C | 2.1 ± 0.3 µM | 0.0154 ± 0.002 µM | 2.7 ± 0.2 µM | 3.1 ± 0.8 µM | 1.1 ± 0.8 µM | 0.2 µM | 2.4 ± 1.1 µM | 0.0097 ± 0.0002 µM
6 | COc1ccc2nc(-c3ccc(OCCCNc4ccnc5cc(Cl)ccc45)cc3)[nH]c2c1 [Compound 13c] | 212 °C (dec.) | 1 ± 0.5 µM | 0.0119 ± 0.0016 µM | 0.2 ± 0.2 µM | 2.6 µM | 2.7 ± 0.5 µM | 0.3 ± 0.2 µM | 1.1 ± 0.5 µM | 0.0128 ± 0.0005 µM
7 | Clc1ccc2c(NCCCOc3ccc(-c4nc5ccc(Cl)cc5[nH]4)cc3Br)ccnc2c1 [Compound 14b, N-{[2-bromo-4-(5(6)-chloro-1H-benzo[d]imidazole-2-yl)phenoxy]propyl}-7-chloroquinolin-4-amine] | 219 to 221 °C | 1.5 ± 1.1 µM | 0.0142 ± 0.0012 µM | 1.5 ± 1 µM | 6.8 ± 3.5 µM | 2 ± 1.8 µM | 0.4 ± 0.1 µM | 0.9 ± 0.6 µM | 0.005 ± 0.0014 µM
8 | Clc1ccc2c(NCCCOc3ccc(-c4nc5ccccc5[nH]4)cc3)ccnc2c1 [Compound 13a] | 200 to 202 °C | 1.1 ± 0.4 µM | 0.0048 ± 0.0003 µM | 3 ± 2.3 µM | 3 ± 0.8 µM | 0.3 ± 0.2 µM | 0.4 ± 0.2 µM | 1.6 ± 0.8 µM | 0.0026 ± 0.0007 µM
9 | Clc1ccc2c(NCCOc3ccc(-c4nc5ccc(Cl)cc5[nH]4)cc3Br)ccnc2c1 [Compound 11b, N-{[2-bromo-4-(5(6)-chloro-1H-benzo[d]imidazole-2-yl)phenoxy]ethyl}-7-chloroquinolin-4-amine] | 238 to 240 °C | 13.3 ± 2.5 µM | 0.0883 ± 0.0031 µM | 5.4 ± 4.6 µM | 4.4 ± 5.1 µM | 3 ± 0.9 µM | 1.3 ± 0.9 µM | 5.8 ± 1.9 µM | 0.0873 ± 0.0033 µM
10 | Clc1ccc2c(NCCOc3ccc(-c4nc5ccccc5[nH]4)cc3Br)ccnc2c1 [Compound 11a, N-{2-[4-(1H-benzo[d]imidazole-2-yl)-2-bromophenoxy]ethyl}-7-chloroquinolin-4-amine] | 226 to 228 °C | 2.1 ± 0.6 µM | 0.0087 ± 0.0034 µM | 2.6 ± 0.2 µM | 4.9 ± 7.3 µM | 2.2 ± 0.8 µM | 0.3 ± 0.3 µM | 2.4 ± 0.6 µM | 0.0369 ± 0.0015 µM
11 | COc1ccc2nc(-c3ccc(OCCCNc4ccnc5cc(Cl)ccc45)c(Br)c3)[nH]c2c1 [Compound 14c, N-{[2-bromo-4-(5(6)-methoxy-1H-benzo[d]imidazole-2-yl)phenoxy]propyl}-7-chloroquinolin-4-amine] | 230 °C (dec.) | 1.6 ± 0.9 µM | 0.0118 ± 0.0032 µM | 0.8 ± 0.7 µM | 5.2 ± 1.8 µM | 0.4 ± 0.1 µM | 0.3 ± 0.1 µM | 0.6 ± 0.1 µM | 0.0114 ± 0.004 µM
12 | Clc1ccc2c(NCCCOc3ccc(-c4nc5ccc(Cl)cc5[nH]4)cc3)ccnc2c1 [Compound 13b] | 198 to 200 °C | 1.6 ± 0.4 µM | 0.0039 ± 0.0011 µM | 0.6 ± 0.1 µM | 2.1 ± 0.7 µM | 0.4 ± 0.1 µM | 0.2 ± 0.1 µM | 0.3 ± 0.2 µM | 0.0024 ± 0.0014 µM
13 | COc1ccc2nc(-c3ccc(OCCCNc4ccnc5cc(Cl)ccc45)c(OC)c3)[nH]c2c1 [Compound 15c, 7-chloro-N-{[4-(5(6)-methoxy-benzo[d]imidazole-2-yl)-2-methoxyphenoxy]propyl}quinolin-4-amine] | 220 °C (dec.) | 1.5 ± 0.3 µM | 0.0165 ± 0.0057 µM | 1.2 ± 0.6 µM | 2.2 ± 0.3 µM | 0.7 ± 0.6 µM | 0.2 µM | 0.7 ± 0.6 µM | 0.0069 ± 0.0017 µM
